Measurements from US6444643B1, “Methods of using inhibitors of cyclophilin rotamase activity to affect neurological activity” (priority 1995, dated 2002).
pEC50, pKi: −log10 of the molar value. Read-outs that look alike come from different tables or passages of the source. Numbered stars: 1 amine (or outer) side, 2 acyl side, 3 side chain; on linkers, the order of the positions; unused ones are H or OH. Square brackets hold non-standard residues; d marks the D form. Peptide text beside a SMILES is read from it. MeBmt = C/C=C/C[C@@H](C)[C@@H](O)[C@H](NC)C(=O)O; X1 = C[C@@H](O)[C@@](C)(C(=O)[*:2])N(C)[*:1]; NMeL = CN[C@@H](CC(C)C)C(=O)O; NMeV = CN[C@H](C(=O)O)C(C)C; NMeAbu = CC[C@H](NC)C(=O)O; Abu = CC[C@H](N)C(=O)O; Dha = C=C(N)C(=O)O; Sar = CNCC(=O)O

Experiments:
[1] = system: chick dorsal root ganglia explants; test: Chick dorsal root ganglion cultures and neurite outgrowth; type: cell-based; settings: for Neurotrophic Potency, Neurite Outgrowth in Chick DRG: relative to cyclosporin A, 48 hours after drug treatment
cyclophilin A = cyclophilin A (Homo sapiens, UniProt P62937); test: Inhibition of peptidyl-prolyl isomerase (rotamase) activity of cyclophilin, chymotrypsin-coupled assay; type: biochemical
cyclophilin A, sequence (P62937 whole entry, species assumed): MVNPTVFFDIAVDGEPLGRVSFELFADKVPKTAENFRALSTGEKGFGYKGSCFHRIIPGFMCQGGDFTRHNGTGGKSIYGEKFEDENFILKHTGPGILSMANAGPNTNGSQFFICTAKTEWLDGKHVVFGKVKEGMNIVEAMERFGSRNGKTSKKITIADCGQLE
Procedure: We evaluated the potencies of drugs in binding to cyclophilin A by examining inhibition of peptidyl prolyl-isomerase activity (Table 1).
The inhibition of this reaction caused by the addition of different concentrations of inhibitor is determined, and the data is analyzed as a change in first-order rate constant as a function of inhibitor concentration to yield the apparent Ki values. The absorbance at 390 nm versus time is monitored for 90 sec using a spectrophotometer and the rate constants are determined from the absorbance versus. time data files.

[2] = system: PC12 cells and sensory neurons, namely dorsal root ganglion cells (DRGS); settings: picomolar concentrations; cited from earlier work
[3] = apparent Ki, substrate N-succinyl-Ala-Ala-Pro-Phe-p-nitroanilide, read-out: Ki, cyclophilin inhibition

Row | Compound | Neurotrophic Potency, Neurite Outgrowth in Chick DRG [1] | pKi (cyclophilin A; [3]) | pKi (cyclophilin A) | pEC50 ([1]; chick DRG explants, from dose-response curves (FIG. 1), read-out: ED50, the dose at which 50% of the maximal response was elicited (neurite outgrowth)) | neurite outgrowth [2]
1 | CCCC[C@@H](C)[C@@H](O)[C@H]1C(=O)N[C@@H](CC)C(=O)N(C)CC(=O)N(C)[C@@H](CC(C)C)C(=O)N[C@@H](C(C)C)C(=O)N(C)[C@@H](CC(C)C)C(=O)N[C@@H](C)C(=O)N[C@H](C)C(=O)N(C)[C@@H](CC(C)C)C(=O)N(C)[C@@H](CC(C)C)C(=O)N(C)[C@@H](C(C)C)C(=O)N1C [Example 2, dihydro-CsA] | + | 7.00 |  |  | 
2 | C=C1NC(=O)[C@H](C)NC(=O)[C@H](CC(C)C)N(C)C(=O)[C@H](C(C)C)NC(=O)[C@H](CC(C)C)N(C)C(=O)CN(C)C(=O)[C@H](CC)NC(=O)[C@H]([C@H](O)[C@H](C)C/C=C/C)N(C)C(=O)[C@H](C(C)C)N(C)C(=O)[C@H](CC(C)C)N(C)C(=O)[C@H](CC(C)C)N(C)C1=O [Example 3, [dehydro-Ala]^8-CsA] (cyclo(A[Dha][NMeL][NMeL][NMeV][MeBmt][Abu][Sar][NMeL]V[NMeL])) | + | 7.12 |  |  | 
3 | C/C=C/C[C@@H](C)[C@@H](O)[C@H]1C(=O)N[C@@H](CC)C(=O)N(C)CC(=O)N(C)[C@@H](C(C)C)C(=O)N[C@@H](C(C)C)C(=O)N(C)[C@@H](CC(C)C)C(=O)N[C@@H](C)C(=O)N[C@H](C)C(=O)N(C)[C@@H](CC(C)C)C(=O)N(C)[C@@H](CC(C)C)C(=O)N(C)[C@@H](C(C)C)C(=O)N1C [Example 4, [MeVal]^4-CsA] (cyclo([MeBmt][Abu][Sar][NMeV]V[NMeL]A[dA][NMeL][NMeL][NMeV])) | +++ |  | 8.00 |  | 
4 | C/C=C/C[C@@H](C)[C@@H](O)[C@H]1C(=O)N[C@@H](CC)C(=O)N(C)CC(=O)N(C)[C@@H](CC)C(=O)N[C@@H](C(C)C)C(=O)N(C)[C@@H](CC(C)C)C(=O)N[C@@H](C)C(=O)N[C@H](C)C(=O)N(C)[C@@H](CC(C)C)C(=O)N(C)[C@@H](CC(C)C)C(=O)N(C)[C@@H](C(C)C)C(=O)N1C [Example 5, [Me-homoAla]^4-CsA] (cyclo([MeBmt][Abu][Sar][NMeAbu]V[NMeL]A[dA][NMeL][NMeL][NMeV])) | +++ |  |  |  | 
5 | C/C=C/C[C@@H](C)[C@@H](O)[C@H]1C(=O)N[C@@H](CC)C(=O)N(C)CC(=O)N(C)[C@@](C)([C@@H](C)O)C(=O)N[C@@H](C(C)C)C(=O)N(C)[C@@H](CC(C)C)C(=O)N[C@@H](C)C(=O)N[C@H](C)C(=O)N(C)[C@@H](CC(C)C)C(=O)N(C)[C@@H](CC(C)C)C(=O)N(C)[C@@H](C(C)C)C(=O)N1C [Example 6, [Me-(a-methyl)Thr]^4-CsA] (cyclo([MeBmt][Abu][Sar][X1]V[NMeL]A[dA][NMeL][NMeL][NMeV])) | +++ |  |  |  | 
6 | cyclosporin A [Example 1, reference compound] | +++ |  |  | 7.30 | stimulates neurite out growth
